Experimental data as given in patent publication US20100273750A1, “SEROTONIN RECEPTOR ANTAGONISTS FOR TREATING ARTHRITIS” (IMPERIAL INNOVATIONS LIMITED, priority 2007, published 2010).
“Also recorded” adds a separate entry of the source. Structures can show the parent of a compound that is named as a salt.

Experiments:
[1] = system: RA synovial membrane cultures; test: Spontaneous cytokine release from RA synovial membrane cultures (ELISA); format: cell-based, human
Experimental: (§1) Macrophages or RA synovial membrane cell cultures were stimulated with 10 ng/ml chloroform-extracted LPS, 10 ng/ml Pam3, 10 ng/ml Flagellin, 10 ng/ml Malp-2, 20 μg/ml poly IC, 2 μM CpG (human/mouse) or 1 μg/ml R-848 in complete media for 6 h. Supernatants from RA cultures were harvested after 24 hours.
(§2) Sandwich ELISAs were employed to measure TNF, (Pharmingen, UK). IP-10 (R&D, USA) and IL-1β (Bioscource. USA). Absorbance was read on a spectrophotometric ELISA plate reader (Labsystems Multiscan Biochromic) and analyzed using Ascent software V2.6 (Thermo Labsystems, Cambridge, United Kingdom). All results are expressed as the mean cytokine concentration±SD obtained from triplicate cultures per condition.
(§3) RA synovial membrane cells were isolated from patients undergoing joint replacement surgery as previously described (Foxwell et al., Proc. Natl. Acad. Sci. USA 95, 8211-8215, 1998). All patients gave written informed consent and the study was approved by the local ethics committee. Immediately after isolation, cells were used for mRNA analysis, stained by FACS or cultured at 1×10^5 cells/well in 96-well tissue culture plates (Falcon, UK) in RPMI 1640 containing 10% (v/v) FBS and 100 U/ml penicillin/streptomycin. Primary human synovial fibroblasts were cultured as described previously (Butler et al. Eur. Cytokine Netw. 5:441-8, 1994). Peripheral blood monocytes were isolated and cultured as previously described (Foxwell et al. Proc. Natl. Acad. Sci. USA 95, 8211-8215, 1998). Macrophages were derived from monocytes after differentiation for 4 days with 100 ng/ml M-CSF (PeproTech, UK). The mouse macrophage cell line RAW 264.7 was maintained in Dulbecco's modified Eagle's medium supplemented with 10% fetal bovine serum.
Rheumatoid arthritis synovial membrane cells were cultured for 24 hours in the presence of media alone or media containing 30 μg/ml mianserine hydrochloride. Supernatants were harvested and levels of cytokines (A) TNF (n=16) were measured by ELISA. […] A students paired t-test was used to analyse the data.

[2] = system: CIA model of rheumatoid arthritis; test: Murine CIA model of rheumatoid arthritis; format: in vivo, Male DBA mice
Experimental: Male DBA mice (8-10 weeks of age) were immunized at the base of the tail intradermally with 200 μg type II collagen emulsified in CFA (Difco Laboratories, West Molesey, U.K.). The onset of arthritis was considered to be the day that erythema and/or swelling were first observed, and arthritic mice were given a daily clinical score per limb from 0 to 3, with 0=normal, 1=slight erythema and swelling, 2=pronounced edematous swelling and 3=joint deformity with ankylosis, resulting in a maximum score of 12 per animal. Mianserine treatment started on the day of onset and was administered daily for 7 days. Paw swelling was assessed by measuring hind paw thickness using calipers.
The experiment was started at the onset of arthritis (day 1). Mice were given an interperitoneal injection of vehicle (PBS), 4 mg/kg or 10 mg/kg of mianserine hydrochloride once a day for 7 days. Mice were assessed for (FIG. 2A) clinical score and (FIG. 2B) paw swelling on a daily basis.

[3] = system: TLR4 ligand LPS induced TNF; test: LPS induced TNF production in primary human macrophages (ELISA); format: cell-based; details: 30 μg/ml, 30 minutes preincubation, 10 ng/ml LPS for 6 hours; hydrochloride
Experimental: as §1, with “hours. All reagents other than LPS were free from LPS contamination as assessed using the limulus amebocyte lysate (LAL) assay from Cambrex (USA).” for “hours.”
as §2, §3
Primary human macrophages, murine RAW 264.7 cells and synovial fibroblasts were incubated with 30 μg/ml mianserine hydrochloride for 30 minutes and then stimulated for 6 hours with TLR ligands (R-848, Pam3, LPS, flagellin, malp-2, poly IC or CpG).

[4] = system: TLR ligands Pam3, flagellin, Malp-2 induced TNF; test: Pam3, flagellin or Malp-2 induced TNF production in primary human macrophages (ELISA); format: cell-based; details: 30 μg/ml, 30 minutes preincubation
Experimental: as §1, with “hours. All reagents other than LPS were free from LPS contamination as assessed using the limulus amebocyte lysate (LAL) assay from Cambrex (USA).” for “hours.”
as §2
(§4) RA synovial membrane cells were isolated from patients undergoing joint replacement surgery as previously described (Foxwell et al., Proc. Natl. Acad. Sci. USA 95, 8211-8215, 1998). All patients gave written informed consent and the study was approved by the local ethics committee. Immediately after isolation, cells were used for mRNA analysis, stained by FACS or cultured at 1×10^5 cells/well in 96-well tissue culture plates (Falcon, UK) in RPMI 1640 containing 10% (v/v) FBS and 100 U/ml penicillin/streptomycin. […]

[5] = system: TLR3 ligand poly IC induced IP-10; test: Poly IC induced IP-10 production in human macrophages (ELISA); format: cell-based; details: 30 μg/ml, 20 μg/ml poly IC for 6 hours; hydrochloride
Experimental: as §1, with “hours. All reagents other than LPS were free from LPS contamination as assessed using the limulus amebocyte lysate (LAL) assay from Cambrex (USA).” for “hours.”
as §2, §3
Primary human macrophages were incubated with 5 μg/ml of GBR12909, 5 μg/ml of clotrimazole, 5 μg/ml of Propidium iodide (PI), 30 μg/ml mianserine hydrochloride and 30 μg/ml promazine hydrochloride for 30 minutes and then stimulated for 6 hours with the TLR4 ligand LPS (FIG. 7A), with R848 a TLR7/8 ligand (FIG. 7, Graph B), or with poly IC a TLR3 ligand (FIG. 7C). Supernatants were collected and measured for TNF or IP-10.

[6] = system: TLR9 ligand CpG induced TNF; test: CpG induced TNF production in murine RAW 264.7 macrophages (ELISA); format: cell-based; details: 30 μg/ml, 30 minutes preincubation, CpG for 6 hours, RAW 264.7, n=2
Experimental: as §1, with “hours. All reagents other than LPS were free from LPS contamination as assessed using the limulus amebocyte lysate (LAL) assay from Cambrex (USA).” for “hours.”
as §2, §4

[7] = system: TLR3 induced NF-κB activation; test: NF-κB luciferase reporter assay in synovial fibroblasts stimulated with poly IC; format: cell-based, human; details: 30 μg/ml, 30 minutes preincubation, 20 μg/ml Poly IC for 6 h, n=3
Experimental: (§5) Synovial fibroblasts were cultured in a 96-well plate, infected with recombinant adenovirus containing a NF-κB Luciferase reporter gene at a MOI of 200:1. The cells were allowed to rest for 24 h prior to stimulation. Cells were preincubated with 30 μg/ml mianserine hydrochloride for 30 minutes, then stimulated with 10 ng/ml LPS or 20 μg/ml Poly IC for 6 h. The cells were then washed once in PBS and lysed with 100 μl of CAT lysis buffer (0.65% (v/v) of Nonidet P-40, 10 mM Tris-HCl pH 8, 0.1 mM EDTA pH 8, 150 mM NaCl). 50 μl of cell lysate were mixed with 120 μl luciferase assay buffer (25 mM Tris-phosphate pH 7.8, 8 mM MgCl2, 1 mM EDTA, 1% (v/v) Triton X-100, 1% (v/v) glycerol, 1 mM DTT, 0.5 mM ATP) in the well of a luminometer cuvette strip. Luciferase activity was measured with a Luminometer (Thermo Labsystems, U.K.) by adding […] of luciferin (Bright-Glo luciferase assay system; Promega, Madison, Wis.) per assay point.
(§6) RA synovial membrane cells were isolated from patients undergoing joint replacement surgery as previously described (Foxwell et al., Proc. Natl. Acad. Sci. USA 95, 8211-8215, 1998). All patients gave written informed consent and the study was approved by the local ethics committee. […]

[8] = system: LPS induced NF-κB activation (TLR4); test: NF-κB luciferase reporter assay in synovial fibroblasts stimulated with LPS; format: cell-based, human; details: 30 μg/ml, 30 minutes preincubation, 10 ng/ml LPS for 6 h, n=3
Experimental: as §5, §6

[9] = system: RA synovial membrane cultures; test: Spontaneous cytokine release from RA synovial membrane cultures (ELISA); format: cell-based, human; details: 24 hours
[10] = system: TLR7/8 ligand R-848 induced TNF; test: R-848 induced TNF production in primary human macrophages (ELISA)
[11] = 4 mg/kg interperitoneal once a day for 7 days
[12] = 10 mg/kg interperitoneal once a day for 7 days

SMILES: CN1CCN2c3ccccc3Cc3ccccc3C2C1 (stereo not shown) [mianserine hydrochloride]
- inhibition of TNF, dose dependence ([1]; 10 μg/ml, 20 μg/ml and 30 μg/ml): dose dependently inhibited
- inhibition of spontaneous TNF production ([1]; 30 μg/ml, 24 hours): able to inhibit
- decrease in the levels of TNF ([1]; 30 μg/ml, 24 hours, n=16, p=0.0007): 59%±13
- clinical score [2, 11]: did not produce as great an effect as the 10 mg/kg group
- hind paw swelling [2, 11]: no significant improvement
- histology scoring [2, 11]: an improvement in the score
- hind paw swelling [2, 12]: significant improvement throughout the study
- histology scoring [2, 12]: significant effect
- histology of hind paws: bone destruction and cell infiltration ([2]; interperitoneal once a day for 7 days): clear reduction in both bone destruction and cell infiltration into the joint
- clinical score ([2]; interperitoneal once a day for 7 days from onset, statistics for 10 mg/kg group versus vehicle, n=7): significant improvement to the control group from day 3 onwards
- inhibition of LPS induced TNF production [3]: not and None of the drugs tested were able to inhibit
- decreased production of TNF in response to Malp-2 ([4]; Malp-2 for 6 hours): not
- decreased production of TNF in response to flagellin ([4]; flagellin for 6 hours): not
- inhibition of Poly IC induced IP-10 production [5]: inhibits TLR3 induced signalling; also recorded: able to inhibit
- inhibition of CpG induced TNF production [6]: able to inhibit TNF production
- inhibition of TLR3 induced NF-κB activation [7]: significantly inhibit
- effect on LPS induced NF-κB activation [8]: no effect
- inhibition of spontaneous TNF production ([9]; 20 μg/ml): able to inhibit
- decrease of TNF levels (positive control) [9]: able to decrease the TNF levels
- inhibitory effect on TNF production at rising R-848 ([10]; 5 μg/ml with 0.3, 1, 10 or 20 μg/ml R-848, 6 hours): diminished with increasing concentrations of R-848
- inhibition of R-848 induced TNF production ([10]; 30 μg/ml, 30 minutes preincubation, 1 μg/ml R-848 for 6 hours, hydrochloride): decreased production of TNF; also recorded: able to suppress
- mode of inhibition of R-848 induced TNF production ([10]; 2.5, 5 or 10 μg/ml with 0.3, 1, 10 or 20 μg/ml R-848, 6 hours, three donors): competitively inhibits
